For one compound, ED50 and Displacement results are on record in ChEMBL document CHEMBL1126995, “Nonpeptide -turn mimetics of enkephalin” (1993).

The species entered for one assay is Mus musculus. The experiment in a line: Tested for the analgesic activity in mouse writhing assay. Format: functional. Background: In writhing tests, fewer writhes than in controls are read as antinociception.
Assay [1] deals with Mu-type opioid receptor (Rattus norvegicus) (UniProt P33535). The experiment in a line: Binding affinity against mu opioid receptors from rat brain (minus cerebellum) using [3H]DAMGO (2.0 nM) at 10 uM. Format: tissue-based.
In assay [2] the target is Delta-type opioid receptor (Rattus norvegicus) (UniProt P33533). The experiment in a line: Binding affinity against Opioid receptor delta 1 from rat brain using (1.0 nM [3H]DTLET or 1.0 nM [3H]-DSLET) at 6 uM.
Sequence of Delta-type opioid receptor (Rattus norvegicus) (P33533 whole entry): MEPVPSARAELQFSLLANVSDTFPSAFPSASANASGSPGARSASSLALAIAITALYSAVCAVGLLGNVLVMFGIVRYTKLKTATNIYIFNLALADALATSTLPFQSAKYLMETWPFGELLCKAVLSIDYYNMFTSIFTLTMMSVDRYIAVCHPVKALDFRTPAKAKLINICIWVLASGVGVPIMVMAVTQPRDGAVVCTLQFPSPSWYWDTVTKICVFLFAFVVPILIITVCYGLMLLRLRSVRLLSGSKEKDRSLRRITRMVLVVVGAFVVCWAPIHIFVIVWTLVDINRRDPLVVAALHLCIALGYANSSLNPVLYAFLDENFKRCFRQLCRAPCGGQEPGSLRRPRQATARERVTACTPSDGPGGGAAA

Sequence of Mu-type opioid receptor (Rattus norvegicus) (P33535 whole entry): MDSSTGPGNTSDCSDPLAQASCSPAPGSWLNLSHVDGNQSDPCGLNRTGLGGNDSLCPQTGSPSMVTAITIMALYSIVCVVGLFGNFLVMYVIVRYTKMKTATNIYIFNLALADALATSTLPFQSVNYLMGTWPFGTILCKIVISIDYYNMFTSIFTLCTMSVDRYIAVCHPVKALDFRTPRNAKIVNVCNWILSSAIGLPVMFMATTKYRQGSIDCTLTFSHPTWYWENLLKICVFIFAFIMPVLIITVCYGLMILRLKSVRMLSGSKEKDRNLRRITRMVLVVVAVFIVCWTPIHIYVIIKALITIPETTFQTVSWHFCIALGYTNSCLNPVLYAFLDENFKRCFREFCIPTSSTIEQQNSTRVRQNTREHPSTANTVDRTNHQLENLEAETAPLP

`COC(=O)C[C@@H]1CC[C@H](Cc2ccccc2)NC(=O)CCC(CNC(=O)[C@@H](N)Cc2ccc(O)cc2)C(=O)N1` (stereo partly drawn) gave an ED50 in the assay filed under Mus musculus of less than 10 µg/mL. Also, the Displacement in assay [1] worked out at 53%; in assay [2] it was 50%.
